Patent publication US10934298B2, “Substituted pyrazolo[1,5-a]pyrimidines for the treatment of medical disorders” (BIAL—BioTech Investments, Inc., priority 2016, dated 2021)

Biological target: T1, glucocerebrosidase (Gcase) (Homo sapiens, UniProt P04062)
T1 construct: micellar solution containing 10 nM GCase and 100 nM saposin C
T1 sequence (P04062 40-536): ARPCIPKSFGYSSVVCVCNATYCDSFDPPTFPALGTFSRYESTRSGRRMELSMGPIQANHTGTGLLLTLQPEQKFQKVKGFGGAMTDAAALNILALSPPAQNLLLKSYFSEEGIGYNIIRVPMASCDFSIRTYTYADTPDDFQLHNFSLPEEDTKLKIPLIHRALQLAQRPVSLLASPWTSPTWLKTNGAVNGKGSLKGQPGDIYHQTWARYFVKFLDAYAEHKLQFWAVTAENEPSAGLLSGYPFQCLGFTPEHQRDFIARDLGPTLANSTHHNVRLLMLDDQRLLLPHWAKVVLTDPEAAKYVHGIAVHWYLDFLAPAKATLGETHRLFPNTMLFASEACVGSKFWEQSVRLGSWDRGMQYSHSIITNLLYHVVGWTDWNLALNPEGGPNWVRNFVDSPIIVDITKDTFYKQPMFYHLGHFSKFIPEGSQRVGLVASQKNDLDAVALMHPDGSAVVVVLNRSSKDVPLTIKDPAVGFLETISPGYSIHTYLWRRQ
Experiment: Glucocerebrosidase (Gcase) activation assay with 4-methylumbelliferyl-beta-D-glucopyranoside substrate, saposin C and phosphatidylserine/triton micelles, fluorescence readout
Format: biochemical
Outline: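 Fluorescence (ex 365 nm, em 440 nm) read after glycine pH 12.5 stop of a 15 min room-temperature reaction. GCase 10 nM plus saposin C 100 nM in PS/triton micelles, pH 4.7, preincubated 30 min with compound; substrate solution held 2 mM 4-MU-beta-glucoside. Screened at 1.0 and 0.1 μM; 8-point, 3-fold curves from 5 μM top.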

Row | Percent Gcase Activation, 0.1 μM Test Compound (test compound at 0.1 μM) | Percent Gcase Activation, 1 μM Test Compound (test compound at 1.0 μM) | Percent Gcase Activation, 0.1 μM Test Compound (0.1 μM test compound) | Percent Gcase Activation, 1 μM Test Compound (1 μM test compound) | SMILES | other results
1 |  |  |  |  | Cc1cc(-c2ccncc2)nc2c(C(=O)NC(C)C3CC3)cnn12 (stereo not drawn) [III-28] | Percent Gcase Activation, 0.1 μM Test Compound (0.1 μM test compound, Table 3A): * (less than 10% Gcase activation); Percent Gcase Activation, 1 μM Test Compound (1 μM test compound, Table 3A): ++ (Gcase activation in the range of 30% up to 60%)
2 | *** (greater than 20% Gcase activation) | +++ (Gcase activation greater than 60%) |  |  | Cc1cc(-c2cccc3ncoc23)nc2c(C(=O)NC(C)(C)C3CC3)cnn12 [III-223] | 
3 | *** (greater than 20% Gcase activation) | +++ (Gcase activation greater than 60%) |  |  | Cc1cc(-c2ccc(F)cc2C#N)nc2c(C(=O)N[C@@H](C)C3CC3)cnn12 [III-152] | 
4 |  |  | *** (greater than 20% Gcase activation) | +++ (Gcase activation greater than 60%) | Cc1oc(C(C)C)nc1-c1cc(C)n2ncc(C(=O)N[C@H](C3CC3)C(F)(F)F)c2n1 [III-332] | 
5 | * (less than 10% Gcase activation) | + (less than 30% Gcase activation) |  |  | Cc1cc(C#N)c(-c2cc(C)n3ncc(C(=O)NC(C4CC4)C(F)(F)F)c3n2)o1 (stereo not drawn) [III-245] | 
6 |  |  | *** (greater than 20% Gcase activation) | +++ (Gcase activation greater than 60%) | Cc1cc(-c2ccoc2)nc2c(C(=O)N[C@H](C)C(F)(F)F)cnn12 [III-337] | 
7 |  |  |  |  | Cc1cc(-c2ccccn2)n2ncc(C(=O)N[C@@H](C)C3CC3)c2n1 [III-25] | Percent Gcase Activation, 0.1 μM Test Compound (0.1 μM test compound, Table 3A): * (less than 10% Gcase activation); Percent Gcase Activation, 1 μM Test Compound (1 μM test compound, Table 3A): + (less than 30% Gcase activation)
8 | *** (greater than 20% Gcase activation) | +++ (Gcase activation greater than 60%) |  |  | Cc1cc(-c2ccc(F)nc2)nc2c(C(=O)NC(C3CC3)C(F)(F)F)cnn12 (stereo not drawn) [III-112] | 
9 |  |  |  |  | Cc1cc(-c2cccnc2)nc2c(C(=O)NC(C(C)C)C(F)(F)F)cnn12 (stereo not drawn) [III-41] | Percent Gcase Activation, 0.1 μM Test Compound (0.1 μM test compound, Table 3A): ** (Gcase activation in the range of 10% up to 20%); Percent Gcase Activation, 1 μM Test Compound (1 μM test compound, Table 3A): +++ (Gcase activation greater than 60%)
10 |  |  | *** (greater than 20% Gcase activation) | +++ (Gcase activation greater than 60%) | Cc1cc(-c2cc(F)ccc2C#N)nc2c(C(=O)N[C@@H](C)C(F)(F)F)cnn12 [III-350] | 
11 |  |  | * (less than 10% Gcase activation) | + (less than 30% Gcase activation) | Cc1nsc(C)c1-c1cc(C)n2ncc(C(=O)N[C@@H](C3CC3)C(F)(F)F)c2n1 [III-386] | 
12 |  |  | *** (greater than 20% Gcase activation) | +++ (Gcase activation greater than 60%) | Cc1cc(C#N)c(-c2cc(C)n3ncc(C(=O)N[C@H](C)C(F)(F)F)c3n2)s1 [III-347] | 
13 |  |  | *** (greater than 20% Gcase activation) | +++ (Gcase activation greater than 60%) | C#Cc1cncc(-c2cc(C)n3ncc(C(=O)N[C@@H](C4CC4)C(F)(F)F)c3n2)c1 [III-383] | 
14 | *** (greater than 20% Gcase activation) | +++ (Gcase activation greater than 60%) |  |  | COc1cncc(-c2cc(C)n3ncc(C(=O)NC(C4CC4)C(F)(F)F)c3n2)c1 (stereo not drawn) [III-265] | 
15 |  |  | * (less than 10% Gcase activation) | +++ (Gcase activation greater than 60%) | CNC(=O)c1cccc(-c2cc(C)n3ncc(C(=O)NC(C4CC4)C(F)(F)F)c3n2)c1 (stereo not drawn) [III-414] | 
16 |  |  |  |  | Cc1cc(-c2ccccn2)n2ncc(C(=O)NC(C)(C)C3CC3)c2n1 [III-17] | Percent Gcase Activation, 0.1 μM Test Compound (0.1 μM test compound, Table 3A): * (less than 10% Gcase activation); Percent Gcase Activation, 1 μM Test Compound (1 μM test compound, Table 3A): + (less than 30% Gcase activation)
17 | *** (greater than 20% Gcase activation) | +++ (Gcase activation greater than 60%) |  |  | Cc1cc(-c2ncccc2F)nc2c(C(=O)NC(C3CC3)C(F)(F)F)cnn12 (stereo not drawn) [III-203] | 
18 |  |  | *** (greater than 20% Gcase activation) | +++ (Gcase activation greater than 60%) | Cc1cc(-c2noc(C(C)C)n2)nc2c(C(=O)N[C@@H](C)C3CC3)cnn12 [III-402] | 
19 |  |  |  |  | Cc1cc(-c2cccnc2F)nc2c(C(=O)NC(C3CC3)C(F)(F)F)cnn12 (stereo not drawn) [III-85] | Percent Gcase Activation, 0.1 μM Test Compound (0.1 μM test compound, Table 3A): *** (greater than 20% Gcase activation); Percent Gcase Activation, 1 μM Test Compound (1 μM test compound, Table 3A): +++ (Gcase activation greater than 60%)
20 | *** (greater than 20% Gcase activation) | +++ (Gcase activation greater than 60%) |  |  | Cc1cc(-c2cc(F)ccn2)nc2c(C(=O)NC(C3CC3)C(F)(F)F)cnn12 (stereo not drawn) [III-205] | 
21 | *** (greater than 20% Gcase activation) | +++ (Gcase activation greater than 60%) |  |  | Cc1cc(N2CCCC(F)(F)C2)nc2c(C(=O)N[C@H](C3CC3)C(F)(F)F)cnn12 [III-94] | 
22 | *** (greater than 20% Gcase activation) | +++ (Gcase activation greater than 60%) |  |  | Cc1coc(-c2cc(C)n3ncc(C(=O)NC(C4CC4)C(F)(F)F)c3n2)n1 (stereo not drawn) [III-254] | 
23 |  |  |  |  | Cc1cc(-c2ccc(F)cc2)nc2c(C(=O)N[C@@H](C)C3CC3)cnn12 [III-7] | Percent Gcase Activation, 0.1 μM Test Compound (0.1 μM test compound, Table 3A): ** (Gcase activation in the range of 10% up to 20%); Percent Gcase Activation, 1 μM Test Compound (1 μM test compound, Table 3A): +++ (Gcase activation greater than 60%)

Row | SMILES | Percent Gcase Activation, 0.1 μM Test Compound (test compound at 0.1 μM) | Percent Gcase Activation, 1 μM Test Compound (test compound at 1.0 μM) | Percent Gcase Activation, 0.1 μM Test Compound (0.1 μM test compound) | Percent Gcase Activation, 1 μM Test Compound (1 μM test compound) | other results
24 | COc1ccc(-c2cc(C)n3ncc(C(=O)N[C@H](C)C(F)(F)F)c3n2)cn1 [III-272] | ** (Gcase activation in the range of 10% up to 20%) | +++ (Gcase activation greater than 60%) |  |  | 
25 | Cc1cc(-c2cccc(-n3cccn3)c2)nc2c(C(=O)NC(C3CC3)C(F)(F)F)cnn12 (stereo not drawn) [III-415] |  |  | *** (greater than 20% Gcase activation) | ++ (Gcase activation in the range of 30% up to 60%) | 
26 | Cc1cc(-c2c(F)cccc2C#N)nc2c(C(=O)N[C@@H](C)C3CC3)cnn12 [III-397] |  |  | ** (Gcase activation in the range of 10% up to 20%) | +++ (Gcase activation greater than 60%) | 
27 | CCc1cc(N2CCN(C(C)C)C2=O)nc2c(C(=O)NC(C)(C)C)cnn12 [III-229] | * (less than 10% Gcase activation) | ++ (Gcase activation in the range of 30% up to 60%) |  |  | 
28 | Cc1cc(-c2cccc3ncoc23)nc2c(C(=O)N[C@@H](C)C3CC3)cnn12 [III-217] | ** (Gcase activation in the range of 10% up to 20%) | +++ (Gcase activation greater than 60%) |  |  | 
29 | Cc1cc(-c2ccc(C(F)(F)F)nc2)nc2c(C(=O)NC(C)C(F)(F)F)cnn12 (stereo not drawn) [III-288] |  |  | ** (Gcase activation in the range of 10% up to 20%) | +++ (Gcase activation greater than 60%) | 
30 | Cc1cc(-c2nnc(C(C)C)o2)nc2c(C(=O)N[C@H](C3CC3)C(F)(F)F)cnn12 [III-391] |  |  | ** (Gcase activation in the range of 10% up to 20%) | +++ (Gcase activation greater than 60%) | 
